# Measurements: patent publication US6037348A (priority 1997, dated 2000)
# Test system: influenza virus strain A/Kaw/86
smiles,measurement,value
COC(=O)[C@@]1(C)CCC[C@]2(C)c3cc(OC)ccc3C(=O)C[C@@H]12 [COMPOUND A],plaque morphology of mutant A2,altered plaque morphology
